ChEMBL document CHEMBL3784938, “Novel heterocyclic ring-fused oleanolic acid derivatives as osteoclast inhibitors for osteoporosis” (Medchemcomm, 2016)
The source made the active and inactive calls. No cut-off for these calls is given here.

Key:
[1] = Cytotoxicity against mouse RAW264.7 cells assessed as inhibition of cell viability at 10 uM after 24 hrs by MTT assay; type: cell-based; settings: read-out: INH
RAW264.7 [2] = test: Antiosteoclast activity in mouse RAW264.7 cells assessed as inhibition of RANKL-induced osteoclast differentiation at 2 uM after 5 days by TRAP assay; type: functional; settings: RAW264.7, 120 h
[3] = Cytotoxicity against mouse RAW264.7 cells assessed as inhibition of cell viability at 20 uM after 24 hrs by MTT assay; type: cell-based; settings: read-out: INH
RAW264.7 [4] = test: cells; settings: Mus musculus, RAW264.7, 120 h
Description: Antiosteoclast activity in mouse RAW264.7 cells assessed as inhibition of RANKL-induced osteoclast differentiation after 5 days by TRAP assay

[5] = Cytotoxicity against mouse RAW264.7 cells assessed as inhibition of cell viability at 5 uM after 24 hrs by MTT assay; type: cell-based; settings: read-out: INH
[6] = Cytotoxicity against mouse RAW264.7 cells assessed as inhibition of cell viability at 2 uM after 24 hrs by MTT assay; type: cell-based; settings: read-out: INH
RAW264.7 [7] = test: Antiosteoclast activity in mouse RAW264.7 cells assessed as inhibition of RANKL-induced osteoclast differentiation at 20 uM after 5 days by TRAP assay; type: functional; settings: RAW264.7, 120 h
RAW264.7 [8] = test: Antiosteoclast activity in mouse RAW264.7 cells assessed as reduction in multinucleated osteoclasts at 2 to 20 uM after 5 days by TRAP assay; type: functional, cell-based
RAW264.7 [9] = test: Downregulation of RANKL-induced c-Fos protein expression in mouse RAW264.7 cells at 5 uM after 2 days by Western blot analysis; type: functional, cell-based
RAW264.7 [10] = test: Downregulation of RANKL-induced NFATc1 mRNA expression in mouse RAW264.7 cells at 5 uM after 2 days by RT-qPCR analysis; type: functional, cell-based
RAW264.7 [11] = test: Downregulation of RANKL-induced TRAP mRNA expression in mouse RAW264.7 cells at 1 to 5 uM after 4 days by RT-qPCR analysis; type: functional, cell-based
Rattus norvegicus [12] = test: Antiosteoporotic effect in ovariectomy rat model assessed as increase in bone mineral density of lumbar spine L3 to L5 at 0.1 mg/kg/day, po administered for 4 weeks by dual-energy X-ray absorptiometry relative to control; type: functional, organism-based
Rattus norvegicus [13] = test: Antiosteoporotic effect in ovariectomy rat model assessed as increase in bone mineral density of lumbar spine L3 to L5 at 1 mg/kg/day, po administered for 4 weeks by dual-energy X-ray absorptiometry relative to control; type: functional, organism-based
RAW264.7 [14] = test: Downregulation of RANKL-induced c-Fos mRNA expression in mouse RAW264.7 cells at 1 to 5 uM after 2 days by RT-qPCR analysis; type: functional, cell-based
RAW264.7 [15] = test: Downregulation of RANKL-induced CathK mRNA expression in mouse RAW264.7 cells at 1 to 5 uM after 4 days by RT-qPCR analysis; type: functional, cell-based
Rattus norvegicus [16] = test: Toxicity in ovariectomy rat model assessed as reduction in uterine weight at 0.1 to 10 mg/kg/day, po administered for 4 weeks; type: organism-based; settings: in vivo, 672 h
Rattus norvegicus [17] = test: Antiosteoporotic effect in ovariectomy rat model assessed as increase in bone mineral density of lumbar spine L3 to L5 at 10 mg/kg/day, po administered for 4 weeks by dual-energy X-ray absorptiometry relative to control; type: functional, organism-based
Rattus norvegicus [18] = test: Toxicity in ovariectomy rat model assessed as undeveloped endometrial gland at 0.1 to 10 mg/kg/day, po administered for 4 weeks by haematoxylin/eosin staining based microscopy; type: organism-based; settings: in vivo, 672 h
RAW264.7 [19] = test: Downregulation of RANKL-induced CTR mRNA expression in mouse RAW264.7 cells at 1 to 5 uM after 4 days by RT-qPCR analysis; type: functional, cell-based
RAW264.7 [20] = test: Downregulation of RANKL-induced NFATc1 protein expression in mouse RAW264.7 cells at 5 uM after 2 days by Western blot analysis; type: functional, cell-based
Rattus norvegicus [21] = test: Toxicity in ovariectomy rat model assessed as undeveloped endometrial luminal epithelium at 0.1 to 10 mg/kg/day, po administered for 4 weeks by haematoxylin/eosin staining based microscopy; type: organism-based; settings: in vivo, 672 h

Row | IC50 (RAW264.7 [4]) [nM] | SMILES | cytotoxicity at 24 h, 10 µM [1] [%] | inhibition at 2 µM (RAW264.7 [2]) [%] | cytotoxicity at 24 h, 20 µM [3] [%] | cytotoxicity at 24 h, 5 µM [5] [%] | cytotoxicity at 24 h, 2 µM [6] [%] | inhibition at 20 µM (RAW264.7 [7]) [%] | also measured
1 | 88 | COc1ccc(S(=O)(=O)n2cc3c(n2)C(C)(C)[C@@H]2CC[C@]4(C)[C@H](CC=C5[C@@H]6CC(C)(C)CC[C@]6(C(=O)NCCN6CCCCC6)CC[C@]54C)[C@@]2(C)C3)cc1 | 67.5 | 100 | 72.9 | 0 | 0 | 100 | –
2 | 24 | COc1ccc(S(=O)(=O)n2cc3c(n2)C(C)(C)[C@@H]2CC[C@]4(C)[C@H](CC=C5[C@@H]6CC(C)(C)CC[C@]6(C(=O)NC6CCN(Cc7ccccc7)CC6)CC[C@]54C)[C@@]2(C)C3)cc1 | 6.6 | 90 | 58.2 | 0 | 0 | 100 | inhibition (RAW264.7 [8]): Active; inhibition (RAW264.7 [9]): Active; inhibition (RAW264.7 [10]): Active; inhibition (RAW264.7 [11]): Active; Activity (Rattus norvegicus [12]): inactive; Activity (Rattus norvegicus [13]): Active; inhibition (RAW264.7 [14]): Active; inhibition (RAW264.7 [15]): Active; Activity (Rattus norvegicus [16]): Non-toxic; Activity (Rattus norvegicus [17]): Active; Activity (Rattus norvegicus [18]): Non-toxic; inhibition (RAW264.7 [19]): Active; inhibition (RAW264.7 [20]): Active; Activity (Rattus norvegicus [21]): Non-toxic
3 | 78 | CC1(C)CC[C@]2(C(=O)NCCN3CCCCC3)CC[C@]3(C)C(=CC[C@@H]4[C@@]5(C)Cc6cn(S(=O)(=O)c7ccc(Br)cc7)nc6C(C)(C)[C@@H]5CC[C@]43C)[C@@H]2C1 | 67.2 | 100 | 70.8 | 0 | 0 | 100 | –
4 | – | Cc1noc(C)c1S(=O)(=O)n1cc2c(n1)C(C)(C)[C@@H]1CC[C@]3(C)[C@H](CC=C4[C@@H]5CC(C)(C)CC[C@]5(C(=O)NCCN5CCCCC5)CC[C@]43C)[C@@]1(C)C2 | 70.7 | 22.3 | 72 | 0 | 0 | 100 | –
5 | – | Cn1cc2c(n1)C(C)(C)[C@@H]1CC[C@]3(C)[C@H](CC=C4[C@@H]5CC(C)(C)CC[C@]5(C(=O)NCc5ccccc5)CC[C@]43C)[C@@]1(C)C2 | – | 76 | – | – | – | 99.7 | –
6 | – | CC1(C)CC[C@]2(C(=O)NCCCN3CCOCC3)CC[C@]3(C)C(=CC[C@@H]4[C@@]5(C)Cc6cn(S(=O)(=O)c7ccc(Cl)cc7)nc6C(C)(C)[C@@H]5CC[C@]43C)[C@@H]2C1 | – | 20.6 | – | – | – | 56.1 | –
7 | 35 | COc1ccc(S(=O)(=O)n2cc3c(n2)C(C)(C)[C@@H]2CC[C@]4(C)[C@H](CC=C5[C@@H]6CC(C)(C)CC[C@]6(C(=O)NC6CCN(Cc7ccccc7)CC6)CC[C@]54C)[C@@]2(C)C3)cc1OC | 0 | 93.2 | 0 | 0 | 0 | 100 | –
8 | – | CC1(C)CC[C@]2(C(=O)NCc3ccccc3)CC[C@]3(C)C(=CC[C@@H]4[C@@]5(C)Cc6cnoc6C(C)(C)[C@@H]5CC[C@]43C)[C@@H]2C1 | – | 27.3 | – | – | – | 69.3 | –
9 | 130 | COc1ccc(S(=O)(=O)n2cc3c(n2)C(C)(C)[C@@H]2CC[C@]4(C)[C@H](CC=C5[C@@H]6CC(C)(C)CC[C@]6(C(=O)NCCN6CCCCC6)CC[C@]54C)[C@@]2(C)C3)cc1OC | 52.6 | 100 | 71.1 | 0 | 0 | 100 | –
10 | 68 | CC1(C)CC[C@]2(C(=O)NCCN3CCCCC3)CC[C@]3(C)C(=CC[C@@H]4[C@@]5(C)Cc6cn(S(=O)(=O)c7ccc(C(F)(F)F)cc7)nc6C(C)(C)[C@@H]5CC[C@]43C)[C@@H]2C1 | – | 100 | – | – | – | 100 | –
11 | – | CC1(C)CC[C@]2(C(=O)NCCN3CCCCC3)CC[C@]3(C)C(=CC[C@@H]4[C@@]5(C)Cc6cnoc6C(C)(C)[C@@H]5CC[C@]43C)[C@@H]2C1 | – | 78.5 | – | – | – | 100 | –
12 | – | Cc1cccc(S(=O)(=O)n2cc3c(n2)C(C)(C)[C@@H]2CC[C@]4(C)[C@H](CC=C5[C@@H]6CC(C)(C)CC[C@]6(C(=O)NCCN6CCCCC6)CC[C@]54C)[C@@]2(C)C3)c1 | – | 33.6 | – | – | – | 100 | –
13 | 99 | CC1(C)CC[C@]2(C(=O)NCCN3CCCCC3)CC[C@]3(C)C(=CC[C@@H]4[C@@]5(C)Cc6c[nH]nc6C(C)(C)[C@@H]5CC[C@]43C)[C@@H]2C1 | 0 | 95.1 | 0 | 0 | 0 | 100 | –
14 | – | CC1(C)CC[C@]2(C(=O)NCCCN3CCOCC3)CC[C@]3(C)C(=CC[C@@H]4[C@@]5(C)Cc6cn(S(=O)(=O)c7ccc(C(C)(C)C)cc7)nc6C(C)(C)[C@@H]5CC[C@]43C)[C@@H]2C1 | – | 56.1 | – | – | – | 97.7 | –
15 | – | Cn1cnc(S(=O)(=O)n2cc3c(n2)C(C)(C)[C@@H]2CC[C@]4(C)[C@H](CC=C5[C@@H]6CC(C)(C)CC[C@]6(C(=O)NCCN6CCCCC6)CC[C@]54C)[C@@]2(C)C3)c1 | – | 89.5 | – | – | – | 100 | –
16 | – | CC1(C)CC[C@]2(C(=O)NCCN3CCCCC3)CC[C@]3(C)C(=CC[C@@H]4[C@@]5(C)Cc6cn(S(=O)(=O)c7ccc(Cl)cc7)nc6C(C)(C)[C@@H]5CC[C@]43C)[C@@H]2C1 | – | 0.9 | – | – | – | 100 | –
17 | – | CC1(C)CC[C@]2(C(=O)NC3CCN(Cc4ccccc4)CC3)CC[C@]3(C)C(=CC[C@@H]4[C@@]5(C)Cc6cn(S(=O)(=O)c7ccc(F)cc7)nc6C(C)(C)[C@@H]5CC[C@]43C)[C@@H]2C1 | – | 73 | – | – | – | 82.9 | –
18 | – | CC1(C)CC[C@]2(C(=O)O)CC[C@]3(C)C(=CC[C@@H]4[C@@]5(C)Cc6cn[nH]c6C(C)(C)[C@@H]5CC[C@]43C)[C@@H]2C1 | – | 32.1 | – | – | – | 99 | –
19 | – | CC1(C)CC[C@]2(C(=O)NCCCN3CCOCC3)CC[C@]3(C)C(=CC[C@@H]4[C@@]5(C)Cc6cn(S(=O)(=O)c7ccc(OC(F)(F)F)cc7)nc6C(C)(C)[C@@H]5CC[C@]43C)[C@@H]2C1 | – | 31.8 | – | – | – | 86.3 | –
20 | – | COc1ccc(S(=O)(=O)n2cc3c(n2)C(C)(C)[C@@H]2CC[C@]4(C)[C@H](CC=C5[C@@H]6CC(C)(C)CC[C@]6(C(=O)NCCCN6CCOCC6)CC[C@]54C)[C@@]2(C)C3)cc1OC | – | 34.4 | – | – | – | 50.9 | –
21 | – | CC1(C)CC[C@]2(C(=O)O)CC[C@]3(C)C(=CC[C@@H]4[C@@]5(C)CC[C@H](O)C(C)(C)[C@@H]5CC[C@]43C)[C@@H]2C1 [OLEANOLIC_ACID] | – | 11.4 | – | – | – | 82.1 | –
22 | 43 | CC1(C)CC[C@]2(C(=O)NCCN3CCCCC3)CC[C@]3(C)C(=CC[C@@H]4[C@@]5(C)Cc6cn(S(=O)(=O)c7ccc(F)cc7)nc6C(C)(C)[C@@H]5CC[C@]43C)[C@@H]2C1 | 74 | 100 | 70.8 | 0 | 0 | 100 | –
23 | – | CC1(C)CC[C@]2(C(=O)NC3CCN(Cc4ccccc4)CC3)CC[C@]3(C)C(=CC[C@@H]4[C@@]5(C)Cc6cn(S(=O)(=O)c7ccc(C(C)(C)C)cc7)nc6C(C)(C)[C@@H]5CC[C@]43C)[C@@H]2C1 | – | 39.2 | – | – | – | 65.6 | –

Row | SMILES | IC50 (RAW264.7 [4]) [nM] | cytotoxicity at 24 h, 10 µM [1] [%] | inhibition at 2 µM (RAW264.7 [2]) [%] | cytotoxicity at 24 h, 20 µM [3] [%] | cytotoxicity at 24 h, 5 µM [5] [%] | cytotoxicity at 24 h, 2 µM [6] [%] | inhibition at 20 µM (RAW264.7 [7]) [%] | also measured
24 | NCCCC(O)(P(=O)(O)O)P(=O)(O)O [ALENDRONATE SODIUM] | 84 | – | 93.2 | – | – | – | – | Activity (Rattus norvegicus [13]): Active
